In patent US20230321033A1, “THIOPHEN COMPOUNDS FOR USE IN THE TREATMENT OF RENAL FIBROSIS” (ENYO PHARMA, priority 2020, published 2023):
“Also recorded” adds a separate entry of the source.

How the values were obtained:
[1] = test system: kidneys of NASH mice (AMLN diet); test: Renal inflammation in NASH mouse model, CD3 stained kidney sections; format: in vivo; details: mice on AMLN diet 30 weeks, then PO treatment 8 weeks twice a day, 7 or 20 mg/kg; kidneys at sacrifice
Method: (§1) Compound #157 was evaluated in a mouse model of NASH. Mice were fed with an AMLN diet (high in fat (40%), fructose (22%) and cholesterol (2%)) for 30 weeks prior treatment with Compound #157 for 8 weeks twice a day at a dose of 7 or 20 mg/kg.
(§2) The livers and kidneys were collected at sacrifice. Fibrosis, in particular tubulointerstitial fibrosis, has been evaluated by quantification of the picrosirius red (PSR) staining positive areas. Inflammation has been quantified on CD3 stained sections.

[2] = test system: kidneys of NASH mice (AMLN diet); test: Renal fibrosis in NASH mouse model, picrosirius red (PSR) staining of kidneys; format: in vivo; details: mice on AMLN diet 30 weeks, then PO treatment 8 weeks twice a day, 7 or 20 mg/kg; kidneys at sacrifice
Method: as §1, §2

SMILES: O=C(Nc1scc(C2CCc3ccccc3C2)c1C(=O)O)c1ccccc1 (stereo not drawn) [Compound #157]
- decrease of renal inflammation (CD3 stained sections) [1]: 50%
- renal inflammation (lymphocytes infiltration), quantified on CD3 stained sections [1]: attenuate significantly inflammation; also recorded: significantly decreases renal inflammation
- renal fibrosis (tubulointerstitial), quantification of picrosirius red (PSR) staining positive areas [2]: completely resolve fibrosis; also recorded: significantly decreases renal fibrosis
